According to the supplement of paper PMC13380429:

Key:
Conditions in all cases: 72 h
Caco-2 [1] = test: cell viability relative to DMSO; higher = less toxic
Calu-3 [2] = test: as above
HepG2 [3] = test: as above
U2OS [4] = test: as above
Vero E6 [5] = test: as above
Caco-2 [6] = test: relative viability EC50 (midpoint between 100% and the lowest measured viability); higher = less toxic
Calu-3 [7] = test: as above
HepG2 [8] = test: as above
U2OS [9] = test: as above
Vero E6 [10] = test: as above
Caco-2 [11] = test: drug sensitivity score (DSS) for viability; higher = more toxic; extreme values may be limits of the assay
Calu-3 [12] = test: as above
HepG2 [13] = test: as above
U2OS [14] = test: as above
Vero E6 [15] = test: as above

Row | SMILES | cell viability (Caco-2 [1]; 1 nM) [%] | cell viability (Caco-2 [1]; 10 nM) [%] | cell viability (Caco-2 [1]; 100 nM) [%] | cell viability (Caco-2 [1]; 1000 nM) [%] | cell viability (Caco-2 [1]; 10000 nM) [%] | cell viability (Calu-3 [2]; 1 nM) [%] | cell viability (Calu-3 [2]; 10 nM) [%] | cell viability (Calu-3 [2]; 100 nM) [%] | cell viability (Calu-3 [2]; 1000 nM) [%] | cell viability (Calu-3 [2]; 10000 nM) [%] | cell viability (HepG2 [3]; 1 nM) [%] | cell viability (HepG2 [3]; 10 nM) [%] | cell viability (HepG2 [3]; 100 nM) [%] | cell viability (HepG2 [3]; 1000 nM) [%] | cell viability (HepG2 [3]; 10000 nM) [%] | cell viability (U2OS [4]; 1 nM) [%] | cell viability (U2OS [4]; 10 nM) [%] | cell viability (U2OS [4]; 100 nM) [%] | cell viability (U2OS [4]; 1000 nM) [%] | cell viability (U2OS [4]; 10000 nM) [%] | cell viability (Vero E6 [5]; 1 nM) [%] | cell viability (Vero E6 [5]; 10 nM) [%] | cell viability (Vero E6 [5]; 100 nM) [%] | cell viability (Vero E6 [5]; 1000 nM) [%] | cell viability (Vero E6 [5]; 10000 nM) [%] | relative viability EC50 (Caco-2 [6]) [µM] | relative viability EC50 (Calu-3 [7]) [µM] | relative viability EC50 (HepG2 [8]) [µM] | relative viability EC50 (U2OS [9]) [µM] | relative viability EC50 (Vero E6 [10]) [µM] | drug sensitivity score (Caco-2 [11]) | drug sensitivity score (Calu-3 [12]) | drug sensitivity score (HepG2 [13]) | drug sensitivity score (U2OS [14]) | drug sensitivity score (Vero E6 [15])
1 | CC(CCc1ccccc1)NCC(O)c1ccc(O)c(C(N)=O)c1 (stereo not given) [labetalol] | 88.3 | 85.3 | 89.4 | 91.2 | 110 | 98.7 | 107 | 94.8 | 103 | 101 | 105 | 100 | 102 | 90.5 | 99.6 | 97.6 | 105 | 98.6 | 101 | 99.7 | 97.3 | 97.2 | 96.3 | 92 | 103 | > 10 | > 10 | > 10 | > 10 | > 10 | 0 | 0 | 0 | 0 | 0
2 | CC(C)=CCC[C@](C)(O)[C@@H]1CC=C(C)CC1 [levomenol] | 101 | 103 | 82.6 | 110 | 95.1 | 97.9 | 98.2 | 97.2 | 94.3 | 100 | 99.8 | 100 | 116 | 98.1 | 106 | 96.2 | 100 | 96.4 | 104 | 103 | 94.6 | 96.5 | 99 | 98.8 | 108 | > 10 | > 10 | > 10 | > 10 | > 10 | 0 | 0 | 0 | 0 | 0
3 | N#Cc1cc(NC(=O)C(=O)O)c(Cl)c(NC(=O)C(=O)O)c1 [lodoxamide] | 106 | 119 | 99.8 | 118 | 128 | 109 | 100 | 92.1 | 96.4 | 99.4 | 102 | 107 | 92.7 | 93.3 | 93.6 | 104 | 102 | 97.2 | 102 | 98.1 | 101 | 99.9 | 98.6 | 97.8 | 93.8 | > 10 | > 10 | > 10 | > 10 | > 10 | 0 | 0 | 0 | 0 | 0
